Experimental data reported in US11214577B2, “Morphinans useful for treating medical disorders” (priority 2019, dated 2022).
Read-outs that look alike come from different tables or passages of the source.

Key:
[1] = molecular target: T1, recombinant human kappa opioid receptor (Homo sapiens, UniProt P41145); test: biochemical; details: membranes of HEK293 cells; radioligand [3H]diprenorphine 0.5 nM; read-out: Binding Affinity Kappa IC50
T1 construct: expressed in transfected cells; host or cells: HEK293 (membranes)

[2] = molecular target: T2, recombinant human mu opioid receptor (Homo sapiens, UniProt P35372); test: Opioid receptor radioligand binding assay, mu; details: for IC50: radioligand [3H]DAMGO 0.5 nM; for Selectivity μ/k: ratio of Mu IC50 to Kappa IC50
T2 construct: expressed in transfected cells; host or cells: HEK293 (membranes)

[3] = molecular target: T3, recombinant human delta opioid receptor (Homo sapiens, UniProt P41143); test: Opioid receptor radioligand binding assay, delta; details: for IC50: radioligand [3H]DADLE 0.5 nM; for Selectivity δ/k: ratio of Delta IC50 to Kappa IC50
T3 construct: expressed in transfected cells; host or cells: HEK293 (membranes)

[4] = molecular target: T1, recombinant human kappa opioid receptor; test: cell-based; format: cell-based; details: for EC50: read-out: Cell Assay (FLIPR Calcium) Kappa EC50
[5] = membranes of HEK293 cells, read-out: Binding Affinity Mu IC50
[6] = membranes of HEK293 cells, read-out: Binding Affinity Delta IC50
[7] = Binding Affinity Mu IC50, membranes of HEK293 cells
[8] = Binding Affinity Delta IC50, membranes of HEK293 cells

T2 sequence (P35372 whole entry): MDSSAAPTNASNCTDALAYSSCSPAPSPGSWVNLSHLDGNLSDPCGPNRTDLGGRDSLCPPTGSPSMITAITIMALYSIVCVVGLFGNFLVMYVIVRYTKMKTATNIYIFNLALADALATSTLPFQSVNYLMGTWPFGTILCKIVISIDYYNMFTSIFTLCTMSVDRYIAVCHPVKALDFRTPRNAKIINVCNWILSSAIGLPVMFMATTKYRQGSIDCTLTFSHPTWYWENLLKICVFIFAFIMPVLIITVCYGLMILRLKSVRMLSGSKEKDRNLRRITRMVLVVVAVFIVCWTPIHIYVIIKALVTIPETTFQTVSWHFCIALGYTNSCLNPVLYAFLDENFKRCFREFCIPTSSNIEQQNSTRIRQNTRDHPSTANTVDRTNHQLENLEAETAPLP
T1 sequence (P41145 whole entry): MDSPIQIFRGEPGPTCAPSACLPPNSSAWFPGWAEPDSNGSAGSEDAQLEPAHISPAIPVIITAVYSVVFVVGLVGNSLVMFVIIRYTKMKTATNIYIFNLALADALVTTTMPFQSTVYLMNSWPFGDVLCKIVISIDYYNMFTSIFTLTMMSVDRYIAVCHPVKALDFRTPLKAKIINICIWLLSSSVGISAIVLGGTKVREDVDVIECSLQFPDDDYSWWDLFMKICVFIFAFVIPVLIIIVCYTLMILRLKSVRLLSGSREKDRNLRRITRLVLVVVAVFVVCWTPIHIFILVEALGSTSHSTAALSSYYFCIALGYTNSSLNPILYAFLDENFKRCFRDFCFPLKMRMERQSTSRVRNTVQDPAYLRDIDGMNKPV
T3 sequence (P41143 whole entry): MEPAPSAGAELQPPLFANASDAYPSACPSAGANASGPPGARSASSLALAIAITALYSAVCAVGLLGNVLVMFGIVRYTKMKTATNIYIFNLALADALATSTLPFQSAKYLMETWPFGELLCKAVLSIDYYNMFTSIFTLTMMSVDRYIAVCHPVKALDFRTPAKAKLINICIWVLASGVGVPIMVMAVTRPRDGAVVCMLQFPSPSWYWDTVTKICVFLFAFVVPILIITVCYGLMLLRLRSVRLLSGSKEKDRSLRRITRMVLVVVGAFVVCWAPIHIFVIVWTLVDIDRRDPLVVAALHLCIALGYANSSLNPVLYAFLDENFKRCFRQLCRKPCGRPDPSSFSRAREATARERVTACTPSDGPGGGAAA

Compound	IC50 [1] [nM]	IC50 [2, 5] [nM]	Selectivity μ/k [2]	IC50 [3, 6] [nM]	Selectivity δ/k [3]	IC50 [2, 7] [nM]	IC50 [3, 8] [nM]	FLIPR calcium cell assay compared with reference ([4]; comparison in words on Table 2)	EC50 [4] [nM]
17-cyclopropylmethyl-10-oxo-4,5α-epoxy-3,14β-dihydroxy-6β-((1R,2R)—N-methyl-2-(3-(4-hydroxylphenyl)-cyclopropanecarboxamido)morphinan [Compound 23b]	0.62	73.7	118.9	528	1331	–	–	–	–
17-cyclopropylmethyl-10-oxo-4,5α-epoxy-3,14β-dihydroxy-6β-((1S,2S)—N-methyl-2-(3-(4-hydroxylphenyl)-cyclopropanecarboxamido)morphinan [Compound 23a]	0.07	12.2	174.3	261	3731	–	–	–	–
CN(C(=O)C1CC1c1ccoc1)C1CCC2(O)C3Cc4ccc(O)c5c4C2(CCN3CC2(O)CC2)C1O5 (single isomer, unassigned) [Compound 16a]	0.94	–	1.65	–	5.80	1.55	5.46	–	–
CN(C(=O)C1CC1c1ccoc1)C1CCC2(O)C3Cc4ccc(O)c5c4C2(CCN3CC2(O)CC2)C1O5 (single isomer, unassigned) [Compound 16b]	6.74	–	1.07	–	5.05	7.18	34	–	–
CN(C(=O)C1CC1c1ccsc1)C1CCC2(O)C3Cc4ccc(O)c5c4C2(CCN3CC2(O)CC2)C1O5 (single isomer, unassigned) [Compound 18a]	0.97	–	1.63	–	11.3	1.58	10.9	–	–
CN(C(=O)C1CC1c1ccsc1)C1CCC2(O)C3Cc4ccc(O)c5c4C2(CCN3CC2(O)CC2)C1O5 (single isomer, unassigned) [Compound 18b]	6.15	–	12.5	–	19.2	76.8	118	–	–
CN(C(=O)C1CC1c1ccsc1)C1CCC2(O)C3Cc4ccc(O)c5c4C2(CCN3CC2(O)CC2)C1O5 (single isomer, unassigned) [Compound 19a]	0.17	–	8.05	–	96.1	1.37	16.3	–	–
CN(C(=O)C1CC1c1ccc(O)cc1)C1CCC2(O)C3Cc4ccc(O)c5c4C2(CCN3CC2(O)CC2)C1O5 (single isomer, unassigned) [Compound 20a]	102	–	1.12	–	1.57	119	161	–	–
CN(C(=O)C1CC1c1ccc(O)cc1)C1CCC2(O)C3Cc4ccc(O)c5c4C2(CCN3CC2(O)CC2)C1O5 (single isomer, unassigned) [Compound 21a]	0.85	–	1.47	–	35.6	1.25	30.2	–	–
CN(C(=O)[C@H]1C[C@@H]1c1ccoc1)[C@@H]1CC[C@@]2(O)[C@H]3Cc4ccc(O)c5c4[C@@]2(CCN3CC2CC2)[C@H]1O5 [Compound 5a, 17-Cyclopropylmethyl-4,5α-epoxy-3,14β-dihydroxy-6β-((1S,2S)—N-methyl-2-(3-furyl)-cyclopropanecarboxamido)morphinan]	0.42	–	–	–	207.59	10.7	86.5	improved cell assays over U-69596	2.64
CN(C(=O)[C@@H]1C[C@H]1c1ccoc1)[C@@H]1CC[C@@]2(O)[C@H]3Cc4ccc(O)c5c4[C@@]2(CCN3CC2CC2)[C@H]1O5 [Compound 5b, 17-Cyclopropylmethyl-4,5α-epoxy-3,14β-dihydroxy-6β-((1R,2R)—N-methyl-2-(3-furyl)-cyclopropanecarboxamido)morphinan]	7.76	–	0.45	–	8.90	3.47	69	–	9.7
CN(C(=O)[C@H]1C[C@@H]1c1ccoc1)[C@H]1CC[C@@]2(O)[C@H]3Cc4ccc(O)c5c4[C@@]2(CCN3CC2CC2)[C@H]1O5 [Compound 7a, 17-Cyclopropylmethyl-4,5α-epoxy-3,14β-dihydroxy-6α-((1S,2S)—N-methyl-2-(3-furyl)-cyclopropanecarboxamido)morphinan]	0.05	–	5.85	–	12.6	0.3	0.66	–	6.86
CN(C(=O)[C@@H]1C[C@H]1c1ccoc1)[C@H]1CC[C@@]2(O)[C@H]3Cc4ccc(O)c5c4[C@@]2(CCN3CC2CC2)[C@H]1O5 [Compound 7b, 17-Cyclopropylmethyl-4,5α-epoxy-3,14β-dihydroxy-6α-((1R,2R)—N-methyl-2-(3-furyl)-cyclopropanecarboxamido)morphinan]	0.24	–	2.16	–	2.82	0.52	0.68	–	3.76
CN(C(=O)[C@H]1C[C@@H]1c1ccoc1)[C@@H]1CC[C@@]2(O)[C@H]3Cc4ccc(O)c5c4[C@@]2(CCN3CC2(O)CC2)[C@H]1O5 [Compound 17a, 17-(1-hydroxylcyclopropylmethyl)-4,5α-epoxy-3,14β-dihydroxy-6β-((1S,2S)—N-methyl-2-(3-furyl)-cyclopropanecarboxamido)morphinan]	1.22	–	4.07	–	35.3	4.96	43.1	–	–
CN(C(=O)[C@@H]1C[C@H]1c1ccoc1)[C@@H]1CC[C@@]2(O)[C@H]3Cc4ccc(O)c5c4[C@@]2(CCN3CC2(O)CC2)[C@H]1O5 [Compound 17b]	6.49	–	6.99	–	11.0	45.4	71.6	–	–
CN(C(=O)[C@@H]1C[C@H]1c1ccsc1)[C@@H]1CC[C@@]2(O)[C@H]3Cc4ccc(O)c5c4[C@@]2(CCN3CC2(O)CC2)[C@H]1O5 [Compound 19b]	0.46	–	13.0	–	319	5.98	147	–	–
CN(C(=O)[C@@H]1C[C@H]1c1ccc(O)cc1)[C@H]1CC[C@@]2(O)[C@H]3Cc4ccc(O)c5c4[C@@]2(CCN3CC2(O)CC2)[C@H]1O5 [Compound 20b]	16	–	0.50	–	0.73	8.08	11.8	–	–
CN(C(=O)[C@@H]1C[C@H]1c1ccc(O)cc1)[C@@H]1CC[C@@]2(O)[C@H]3Cc4ccc(O)c5c4[C@@]2(CCN3CC2(O)CC2)[C@H]1O5 [Compound 21b]	> 200	–	<0.57	–	<1.93	114	385	–	–
